From US20060211755A1, “3-oxo-1, 3-dihydro-indazole-2-carboxylic acid amide derivatives as phospholipase inhibitors” (Eli Lilly and Company Patent Division, priority 2003, published 2006)

What follows are molecules tested against T1, endothelial lipase (EL) (Homo sapiens, UniProt Q9Y5X9) (assay: Endothelial Lipase Inhibition (Thio PEG substrate, conditioned media)). Conditions: EL expressed from AV12 cells, 37° C., average of 3 experiments.
T1 construct: made in house; host or cells: AV12 cells (conditioned media, non-purified)
T1 sequence (Q9Y5X9 21-500): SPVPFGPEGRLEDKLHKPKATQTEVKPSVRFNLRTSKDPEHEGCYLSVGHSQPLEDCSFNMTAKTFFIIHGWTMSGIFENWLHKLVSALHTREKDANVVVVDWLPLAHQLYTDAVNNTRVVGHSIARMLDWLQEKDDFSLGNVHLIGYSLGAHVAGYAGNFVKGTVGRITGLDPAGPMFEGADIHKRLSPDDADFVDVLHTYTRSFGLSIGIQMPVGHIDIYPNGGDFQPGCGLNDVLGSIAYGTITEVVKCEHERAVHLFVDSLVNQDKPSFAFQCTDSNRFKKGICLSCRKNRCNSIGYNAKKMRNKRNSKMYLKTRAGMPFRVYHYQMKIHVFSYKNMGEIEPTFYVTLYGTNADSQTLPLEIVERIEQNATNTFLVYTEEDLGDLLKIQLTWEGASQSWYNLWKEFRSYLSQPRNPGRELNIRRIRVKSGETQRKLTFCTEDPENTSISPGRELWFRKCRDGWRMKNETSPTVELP
Assay type: biochemical
Protocol: Methods for Characterization of Endothelial Lipase Activity
Hepatic lipase (HL) and endothelial lipase (EL) were expressed from AV12 cells. Aliquots from one day's collection of media were stored at −70° C. Activity was measured for both enzymes in conditioned media, (non-purified) where they were tested on the same plate with Thio PEG substrate (0.06 mol fraction, 7.24 mM total lipid), at 37° C. for 30 minutes. […] The OD for EL at 1× was 6.029. Therefore, when HL was used in studies where it was compared to EL, the HL was at 0.25× and EL was used at 1×. All experiments were done in triplicate with enzyme from conditioned media.
Assay conditions of assay were as follows. Both substrates for EL were run at 0.03 mol fraction, 10 mM total lipid. They were dissolved in 100 mM Hepes with 9.95 mM TX100. Both substrates for HL were run at 0.06 mol fraction and 7.25 mM total lipid. They were dissolved in 100 mM Hepes with 6.83 mM Triton X100. The EL enzyme was used at 1× and the HL enzyme was used at 0.25×. The order of addition was as follows: 10 μL of 10% DMSO, 80 μL of substrate and 10 μL of enzyme. The DMSO and substrate were incubated for 10 minutes at 37° C. before the addition of the enzyme. DTNB was added to the substrate prior to addition to the well at 0.096 mg/mL final plate. concentration. The experiments were performed 3 times. Data represents an average of these.
Several compounds were tested with HL and EL to determine their ability to inhibit these enzymes. Conditions of the assay were as mentioned in the previous paragraph except for the order of addition. In these experiments, the order of addition was 10 μL of drug/control, 10 μL of enzyme followed by a 10 minute incubation at 37° C. This was followed by the addition of the 80 μL of Thio PEG substrate containing DTNB. Each experiment was performed 3 times. Data represents an average.
`O=C(NCc1ccc2c(c1)OCO2)n1[nH]c2ccccc2c1=O` gave an IC50 of 45.1 ± 27.5 nM.
In the case of `O=C(NCc1ccccc1)n1[nH]c2ccccc2c1=O`, the IC50 is reported as 73.8 ± 26.2 nM.
For `CCc1ccccc1CNC(=O)n1[nH]c2ccccc2c1=O`, the IC50 was 11.4 ± 5.17 nM.
Work on `O=C(NCc1csc2ccccc12)n1[nH]c2ccccc2c1=O` yielded an IC50 of 13.2 ± 2.83 nM.
